ChEMBL document CHEMBL6096697, “Structure-Guided Discovery of Novel N4-(Substituted Thiazol-2-yl)-N2-(4-Substituted phenyl)pyrimidine-2,4-Diamines as Potent CDK2 and CDK9 Dual Inhibitors with High Oral Bioavailability” (J Med Chem, 2025)
Activity calls are given as the source filed them. The calls are words filed in the database; no cut-off is given here.

Key:
HeLa [1] = assay: Induction of apoptosis in human HeLa cells assessed as late apoptotic cells at 0.9 uM incubated for 24 hrs by PI staining based flow cytometry (reference value: 3.85 %); assay type: functional
HeLa [2] = assay: Induction of cell cycle arrest in human HeLa cells assessed as accumulation at G2/M phase at 0.9 uM incubated for 24 hrs by PI staining based flow cytometry (reference value: 24.6 +/- 1.11 %); assay type: functional
HeLa [3] = assay: Induction of apoptosis in human HeLa cells assessed as early apoptotic cells at 1.8 uM incubated for 24 hrs by PI staining based flow cytometry (reference value: 0.8 %); assay type: functional
[4] = Toxicity in Balb/c-nu nude mouse xenografted with human HCT-116 cells assessed as body weight loss at 35 to 70 mg/kg/day, po treated for 30 days; assay type: organism-based; conditions: in vivo, 720 h, dose 35-70 mg/kg/day, time 30 day
HeLa [5] = assay: Induction of cell cycle arrest in human HeLa cells assessed as accumulation at S phase at 1.8 uM incubated for 24 hrs by PI staining based flow cytometry (reference value: 17.84 +/- 1.89 %); assay type: functional
HCT-116 [6] = assay: Induction of cell cycle arrest at G2/M phase in human HCT-116 cells assessed as decrease in cyclin B1 level at 0.4 uM by Western blot analysis; assay type: functional, cell-based; conditions: time <= 48.0 hrs
U-87 MG = assay: Antiproliferative activity against human U-87 MG cells assessed as cell growth inhibition incubated for 48 hrs by MTT assay; assay type: functional, cell-based, U-87MG ATCC
HeLa [7] = assay: Induction of apoptosis in human HeLa cells assessed as late apoptotic cells at 3.6 uM incubated for 24 hrs by PI staining based flow cytometry (reference value: 3.85 %); assay type: functional
[8] = Toxicity in Balb/c-nu nude mouse xenografted with human HCT-116 cells assessed as toxicity in liver at 35 to 70 mg/kg/day, po treated for 30 days by H and E staining based analysis; assay type: organism-based; conditions: in vivo, 720 h, dose 35-70 mg/kg/day, time 30 day
HeLa [9] = assay: Induction of cell cycle arrest at G2/M phase in human HeLa cells assessed as decrease in p-Cdc2 level at 1.8 uM by Western blot analysis; assay type: functional, cell-based; conditions: time <= 48.0 hrs
HeLa [10] = assay: Induction of cell cycle arrest at G2/M phase in human HeLa cells assessed as decrease in cyclin B1 level at 1.8 uM by Western blot analysis; assay type: functional, cell-based; conditions: time <= 48.0 hrs
HCT-116 [11] = assay: Induction of cell cycle arrest in human HCT-116 cells assessed as accumulation at G2/M phase at 0.8 uM incubated for 24 hrs by PI staining based flow cytometry (reference value: 20.6 +/- 3.38 %); assay type: functional
[12] = Tmax in Sprague-Dawley rat at 10 mg/kg, po measured for 36 hrs by MRM analysis; assay type: ADME, organism-based; conditions: in vivo
HeLa [13] = assay: Effect on Bax level in human HeLa cells upto 3.6 uM incubated for 24 hrs by Western blot analysis; assay type: functional, cell-based
A549 = assay: Antiproliferative activity against human A549 cells assessed as cell growth inhibition incubated for 48 hrs by MTT assay; assay type: functional, cell-based; conditions: A549, 48 h
HCT-116 [14] = assay: Induction of cell cycle arrest in human HCT-116 cells assessed as accumulation at sub-G1 phase at 0.2 uM incubated for 24 hrs by PI staining based flow cytometry (reference value: 2.45 +/- 0.49 %); assay type: functional
[15] = Cmax in Sprague-Dawley rat at 10 mg/kg, po measured for 36 hrs by MRM analysis; assay type: ADME, organism-based; conditions: in vivo
HCT-116 [16] = assay: Induction of apoptosis in human HCT-116 cells assessed as late apoptotic cells at 0.8 uM incubated for 24 hrs by PI staining based flow cytometry (reference value: 1.11 %); assay type: functional
[17] = Apparent volume of distribution in Sprague-Dawley rat at 2 mg/kg, iv measured for 36 hrs by MRM analysis; assay type: ADME, organism-based; conditions: in vivo, read-out: Vz
HCT-116 [18] = assay: Induction of apoptosis in human HCT-116 cells assessed as viable cells at 0.2 uM incubated for 24 hrs by PI staining based flow cytometry (reference value: 79.4 %); assay type: functional; conditions: read-out: Activity
HCT-116 [19] = assay: Induction of apoptosis in human HCT-116 cells assessed as necrotic cells at 0.8 uM incubated for 24 hrs by PI staining based flow cytometry (reference value: 18.9 %); assay type: functional
[20] = biological target: Cyclin-dependent kinase 4/cyclin D1 (Homo sapiens, UniProt P11802); assay: Inhibition of CDK4/cyclin D (unknown origin) using […] incubated for 40 mins in presence of ATP by Kinase-Glo assay; assay type: protein-complex assay
Cyclin-dependent kinase 4/cyclin D1, sequence (P11802 whole entry): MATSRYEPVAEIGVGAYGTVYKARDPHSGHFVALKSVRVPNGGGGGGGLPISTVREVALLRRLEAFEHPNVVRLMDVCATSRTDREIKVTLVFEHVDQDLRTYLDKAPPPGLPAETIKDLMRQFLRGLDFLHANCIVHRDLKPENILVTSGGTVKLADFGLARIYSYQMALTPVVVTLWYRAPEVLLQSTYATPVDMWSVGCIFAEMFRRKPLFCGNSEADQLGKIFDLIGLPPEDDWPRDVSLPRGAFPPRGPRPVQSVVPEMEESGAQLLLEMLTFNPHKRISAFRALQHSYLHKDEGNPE
Cyclin-dependent kinase 4/cyclin D1, sequence (P24385 whole entry, further chain): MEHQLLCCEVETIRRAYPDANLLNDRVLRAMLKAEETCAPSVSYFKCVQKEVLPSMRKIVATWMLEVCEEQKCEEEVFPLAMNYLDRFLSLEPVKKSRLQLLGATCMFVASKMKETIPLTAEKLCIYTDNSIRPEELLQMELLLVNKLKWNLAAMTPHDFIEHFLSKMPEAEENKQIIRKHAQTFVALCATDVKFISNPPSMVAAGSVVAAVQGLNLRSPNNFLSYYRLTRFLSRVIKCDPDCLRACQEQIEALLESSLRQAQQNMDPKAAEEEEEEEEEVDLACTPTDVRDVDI

[21] = Inhibition of CDK9/cyclin T (unknown origin) using […] incubated for 40 mins in presence of ATP by Kinase-Glo assay; parameters: species or system Homo sapiens
[22] = Toxicity in Balb/c-nu nude mouse xenografted with human HCT-116 cells assessed as toxicity in kidney at 35 to 70 mg/kg/day, po treated for 30 days by H and E staining based analysis; assay type: organism-based; conditions: in vivo, 720 h, dose 35-70 mg/kg/day, time 30 day
HCT-116 [23] = assay: Induction of apoptosis in human HCT-116 cells assessed as increase in p53 level upto 0.8 uM incubated for 24 hrs by Western blot analysis; assay type: functional, cell-based
[24] = Oral bioavailability in Sprague-Dawley rat at 10 mg/kg measured for 36 hrs by MRM analysis; assay type: ADME, organism-based; conditions: in vivo
HCT-116 [25] = assay: Induction of cell cycle arrest in human HCT-116 cells assessed as accumulation at G1/G0 phase at 0.2 uM incubated for 24 hrs by PI staining based flow cytometry (reference value: 58.29 +/- 2.01 %); assay type: functional
[26] = biological target: Cyclin-dependent kinase 2/cyclin A (Homo sapiens, UniProt P24941); assay: Inhibition of CDK2/cyclin A (unknown origin) using […] incubated for 40 mins in presence of ATP by Kinase-Glo assay; assay type: protein-complex assay
[27] = AUC (0 to infinity) in Sprague-Dawley rat at 2 mg/kg, iv measured for 36 hrs by MRM analysis; assay type: ADME, organism-based; conditions: in vivo
HeLa [28] = assay: Induction of apoptosis in human HeLa cells assessed as decrease in Bcl-2 level upto 3.6 uM incubated for 24 hrs by Western blot analysis; assay type: functional, cell-based
HCT-116 [29] = assay: Antitumor activity against human HCT-116 cells xenografted in Balb/c-nu nude mouse at 70 mg/kg/day, po treated for 7 days consecutively relative to control; assay type: functional; conditions: HCT-116, 168 h, time 7 day, read-out: TGI
MV4-11 = assay: Antiproliferative activity against human MV4-11 cells assessed as cell growth inhibition incubated for 48 hrs by MTT assay; assay type: functional, cell-based; conditions: MV4-11, 48 h
[30] = biological target: CDK9/cyclin T1 (Homo sapiens) (UniProt O60563+P50750); assay: Inhibition of CDK9/cyclin T (unknown origin) using […] at 1 uM incubated for 40 mins in presence of ATP by Kinase-Glo assay relative to control; assay type: protein-complex assay
[31] = AUC (0 to infinity) in Sprague-Dawley rat at 10 mg/kg, po measured for 36 hrs by MRM analysis; assay type: ADME, organism-based; conditions: in vivo
HeLa [32] = assay: Induction of apoptosis in human HeLa cells assessed as early apoptotic cells at 3.6 uM incubated for 24 hrs by PI staining based flow cytometry (reference value: 0.8 %); assay type: functional
HeLa [33] = assay: Induction of cell cycle arrest in human HeLa cells assessed as accumulation at sub-G1 phase at 3.6 uM incubated for 24 hrs by PI staining based flow cytometry (reference value: 1.89 +/- 0.56 %); assay type: functional
HeLa [34] = assay: Antiproliferative activity against human HeLa cells assessed as cell growth inhibition incubated for 48 hrs by MTT assay; assay type: functional, cell-based

IC50 (U-87 MG): 1010 nM | Tmax [12]: 30 min | IC50 (A549): > 30000 nM | Cmax [15]: 21.1 ng/mL | Vd [17]: 275 L/kg | IC50 [20]: 942 nM | IC50 [21]: 9 nM | bioavailability [24]: 86.7% | IC50 [26]: 4 nM | AUC(0-inf) [27]: 33.7 ng·h/mL | IC50 (MV4-11): 121 nM | inhibition [30]: 99% | AUC(0-inf) [31]: 146 ng·h/mL | IC50 (HeLa [34]): 1840 nM
SMILES: Cc1cnc(Nc2ccc(S(N)(=O)=O)cc2)nc1Nc1nccs1
Activity (HeLa [1]): 5% | Activity (HeLa [2]): 26.41% | Activity (HeLa [3]): 62.6% | Activity [4]: Non-toxic | Activity (HeLa [5]): 16.79% | Activity (HCT-116 [6]): Time-dependent-effect | Activity (HeLa [7]): 27.3% | Activity [8]: Non-toxic | Activity (HeLa [9]): Time-dependent-effect | Activity (HeLa [10]): Time-dependent-effect | Activity (HCT-116 [11]): 37.16% | Activity (HeLa [13]): No effect | Activity (HCT-116 [14]): 0.56% | Activity (HCT-116 [16]): 27.7% | viability at 0.2 µM (HCT-116 [18]): 63.1% | Activity (HCT-116 [19]): 4% | Activity [22]: Non-toxic | Activity (HCT-116 [23]): Active | Activity (HCT-116 [25]): 51.83% | Activity (HeLa [28]): Active | inhibition in vivo at 70 mg/kg/day (HCT-116 [29]): 67% | Activity (HeLa [32]): 61% | Activity (HeLa [33]): 19.5%
